Data on one compound can be found in US20220401591A1, “SYSTEM AND METHOD FOR QUANTITATIVE MAPPING OF MITOCHONDRIAL COMPLEX 1” (Lantheus Medical Imaging, Inc., priority 2012, published 2022).

For series [1], the system named is mitochondrial complex I (MC-I). Put plainly: 100 minute dynamic ^18F-Flurpiridaz PET study of binding in the heart, 2-compartment reversible model fit. The class given is in vivo, cynomolgus monkey. Conditions: myocardium ROI, 100 min data, 1.25 mCi. An excerpt: Measurement of myocardial blood flow and binding potential with ^18F-Flurpiridaz can be approached with standard methods that are well understood and available in our laboratory. We use a four parameter (K1, k2, k3, k4), two tissue compartment model (FIGS. 1A-1B) to describe Flurpiridaz kinetics. In this model the tracer can be in one of two states, either free, as the injected molecule, or bound to a receptor. In the case of ^18F-Flurpiridaz, previous studies have shown that it binds reversibly to mitochondrial complex I and this is supported by the data presented herein (see Example 3). Referring to FIGS. 1A-1B, the product of plasma concentration (Cp) and transport rate K1 is the force driving the tracer from capillary plasma to the free space (i.e., both free and nonspecifically bound). Conceptually, CF represents free flurpiridaz and CB represents Flurpiridaz binding to the MC-I complex. Corrections (not shown) are included for spillover of activity.
Symbolically, K1 is the plasma-to-tissue transport rate, FE, the product of flow and the unidirectional capillary extraction fraction, E. k2 is a rate constant summarizing the egress from tissue to plasma. The rate constants k3 (kon*B′max) and k4 (koff) provide a summary description of binding and release of tracer. This model, with nonlinear least squares, was used to fit 100 minutes of data obtained in a study of binding in the heart of a cynomolgus monkey (see Example 3). It is anticipated that a similar approach will be adequate for validation studies in pigs. Graphical methods can also be studied and applied for determination of BP, as they may be more appropriate for quantitative parametric images and future translation to human studies. For example, consider: Logan J, Fowler J S, Volkow N D, et al. Graphical analysis of reversible radioligand binding from time-activity measurements applied to [N-11C-methyl]-(-)-cocaine PET studies in human subjects. J Cereb Blood Flow Metab. Sep 1990; 10(5):740-747 and Zhou Y, Ye W, Brasic J R, Crabb A H, Hilton J, Wong D F. A consistent and efficient graphical analysis method to improve the quantification of reversible tracer binding in radioligand receptor dynamic PET studies. Neuroimage. Feb 1 2009; 44(3):661-670. Software programs for both approaches have been developed. Realistic Monte Carlo simulation and sensitivity analysis can be used to determine the precision obtained with a given dose of ^18F-Flurpiridaz and the experimental duration of the study. The structure of ^18F-Flurpiridaz is detailed in FIG. 1C.
Based on preliminary data from a primate study using ^18F-Flurpiridaz, the parameter precision for estimating the MBF and BPP was evaluated. […]

For series [2], the system named is MC-I. Put plainly: ^18F-Flurpiridaz cardiac dynamic PET in infarcted pig, two-tissue compartment model. The class given is in vivo, domestic swine. An excerpt:
In some aspects the model is further developed. The modeling approach is based upon the two-tissue compartment model that describes the uptake and retention of a radiotracer that diffusively exchanges between the blood and tissue, and binds reversibly to a specific target site (FIG. 1A-1B). In this framework the concentration of radiotracer is considered in three distinct states: in the plasma (CP) or one of two tissue states, freely suspended in the tissue fluids (CF) or specifically bound to the target site (CB). Four parameters (K1, k2 , k3, k4) detail the physiological mechanisms underlying uptake and binding. K1 and k2 pertain to the rates of tracer influx (proportional to blood flow) from the vasculature and efflux back out of the tissue, respectively. The ratio K1/k2 is the partition coefficient VND. which reflects non-specific uptake based on properties of the tissue that are not expected to vary regionally. The rate at which tracer binds to the target site is related by k3. The bimolecular nature of associative binding makes k3 a compound parameter, the product of kon (an intrinsic binding rate characteristic to the ligand and target site) and Bmax (the density of the binding sites). For reversibly binding interactions such as between ^18F-Flurpiridaz and MC-I, the return of specifically bound tracer to the free state is portrayed by k4. Here k4 is synonymous with the intrinsic binding dissociation constant koff, which is not expected to differ between regions. In our cardiac application, two additional parameters (fLV, fRV) account for signal contamination from blood pools in the adjacent left and right ventricles. Combinations of individual rate constants yield macroparameters that are robust and informative with regard to radiotracer binding at the target site. These macroparameters include total volume of distribution (VT=[K1/k2][1+k3/k4], the equilibrium ratio of tracer concentration in tissue vs. plasma) and several variants of binding potential (BP, proportional to the target density). […]

For series [3] the following is noted: cited from earlier work.
Where [4] appears, read: 17 segments fitted independently.

For `CC(C)(C)n1ncc(OCc2ccc(COCCF)cc2)c(Cl)c1=O` [^18F-Flurpiridaz], in series [1], the “k2 (egress from tissue to plasma)” value is recorded as 0.075 (SD=4.7%); the k3/k4 was 1.65 (SD=4.0%); the “k4 (koff, release)” value is recorded as 0.016 (SD=10.4%). The “K1 (plasma-to-tissue transport rate)” value in series [1] (SD from asymptotic covariance matrix) is 0.51 (SD=1.5%). Also, in series [2] (setting [4]), the “reduction of K1 in damaged compared to healthy tissue” value was “about 50%” and the “reduction of VT in damaged compared to healthy tissue” value is “about 75%”. The “binding reduction (BP) in damaged tissues” value in series [2] (grand fit with common VND across regions) is given as “up to 90%”. Further, the unidirectional extraction fraction in series [3] (at all physiological flow values) was around 1. The “brain blood barrier passage” value in series [3] (in vivo) is given as “crosses the brain blood barrier”.
